Structures can show the parent of a compound that is named as a salt. Where two headings read alike, the source gives them in different places.

Experimental findings from patent publication US7288567B2, “Inhibitors of histone deacetylase” (Methylgene Inc., priority 2000, dated 2007) are described below.

The assay addresses T1, recombinant human HDAC-1 enzyme (rHDAC-1) (Homo sapiens, UniProt Q13547).
T1 construct: made in house; host or cells: Baculovirus insect cell expression system
Briefly: Histone deacetylase inhibition, recombinant human HDAC-1. It is filed as biochemical. On the procedure: The reaction was stopped by adding acetic acid (0.04 M, final concentration) and HCl (250 mM, final concentration). The mixture was extracted with ethyl acetate and the released [^3H]-acetic acid was quantified by scintillation counting. For inhibition studies, the enzyme was preincubated with compounds at 4° C. for 30 minutes prior to initiation of the enzymatic assay. IC50 values for HDAC enzyme inhibitors were determined by performing dose response curves with individual compounds and determining the concentration of inhibitor producing fifty percent of the maximal inhibition.

The mark [1] stands for this setting: cloned recombinant human HDAC-1, Baculovirus insect cell expression, read-out: rHDAC-1 IC50.

T1 sequence (Q13547 whole entry): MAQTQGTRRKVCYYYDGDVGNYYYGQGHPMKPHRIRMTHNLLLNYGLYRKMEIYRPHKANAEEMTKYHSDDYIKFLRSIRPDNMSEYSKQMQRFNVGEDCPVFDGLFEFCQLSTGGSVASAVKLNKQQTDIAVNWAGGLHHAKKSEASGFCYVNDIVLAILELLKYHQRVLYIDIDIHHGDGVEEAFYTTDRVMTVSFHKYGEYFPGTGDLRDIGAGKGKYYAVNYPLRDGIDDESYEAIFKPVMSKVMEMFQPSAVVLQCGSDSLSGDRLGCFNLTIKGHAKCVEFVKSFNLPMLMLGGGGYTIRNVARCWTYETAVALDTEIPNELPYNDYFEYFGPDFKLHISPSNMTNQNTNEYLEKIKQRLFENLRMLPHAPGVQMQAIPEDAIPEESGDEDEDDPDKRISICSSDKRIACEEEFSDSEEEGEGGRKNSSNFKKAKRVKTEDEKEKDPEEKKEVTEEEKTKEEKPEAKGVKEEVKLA

In general, IC50 refers to the concentration that gives 50% inhibition. Turning to `Nc1ccccc1NC(=O)CCCCS(=O)(=O)CC(=O)c1ccc(-c2ccccc2)cc1` [Compound 230b, N-(2-Aminophenyl)-5-(4-biphenylcarbonylmethylsulfonyl)pentanamide], the IC50 under setting [1] is 12 µM. With `Nc1ccccc1NC(=O)CCCCN1C(=O)c2ccccc2C1=O` [Compound 243b, N-(2-Aminophenyl)-5-(N-phthaloyl)pentanamide], the 50% inhibitory concentration (IC50) under setting [1] came to 99 µM. Take `Nc1ccccc1NC(=O)CCCCCCC(=O)c1ccc(-c2ccc(CN3CCOCC3)cc2)cc1` [Compound 157, N-(2-Aminophenyl)-7-[4-(4-(N-methylmorpholinyl)phenyl)benzoyl]heptanamide]: under setting [1], the IC50 was 4 µM.

Regarding `Nc1ccccc1NC(=O)CCCCCN1C(=O)c2cc(O)c(CN3CCCCC3)cc2C1=O` [Compound 243h, N-(2-Aminophenyl)-6-(5-hydroxy-6-(1-methylpiperidinyl)-N-phthaloyl)-hexanamide], the IC50 under setting [1] came out at 3 µM. Same read-out and setting: then `O=C(CCCCCN(Cc1ccccc1)Cc1ccc2ccccc2c1)NO` [Compound 220b, N-Hydroxy-6-N-(Benzyl-2-naphthylmethylamino)hexanamide], with 0.1 µM; and `Nc1ccccc1NC(=O)CCCCCCN1C(=O)c2ccccc2C1=O` [Compound 243c, N-(2-Aminophenyl)-7-(N-phthaloyl)heptanamide], with 4 µM; and `CC(C)(C)OC(=O)N(CCCCCC(=O)NO)Cc1ccc2ccccc2c1` [Compound 222, N-Hydroxy-6-N-(tert-butoxycarbonyl-2-naphthylmethylamino)hexanamide], with 0.1 µM. Regarding `CC(C)(C)OC(=O)N(CCCCCC(=O)Nc1ccccc1N)Cc1ccc2ccccc2c1` [Compound 224, N-(2-Aminophenyl)-6-N-(tert-butoxycarbonyl-2-naphthylmethylamino)-hexanamide], the IC50 under setting [1] was found to be 3 µM. Consider `Nc1ccccc1NC(=O)CCCCCC(=O)c1ccc(-c2ccccc2)cc1` [Compound 129, N-(2-Aminophenyl)-6-[(biphenyl)carbonyl]hexanamide], for which the IC50 under setting [1] stood at 1 µM.

Consider `Nc1ccccc1NC(=O)CCCCSCC(=O)c1ccc2ccccc2c1` [Compound 227a, N-(2-Aminophenyl)-5-(2-naphthoylmethylsulfanyl)pentanamide], for which the IC50 under setting [1] was found to be 3 µM. On the same count and under the same terms, the same measure for `COc1ccc(N)c(NC(=O)CCCCCCC(=O)c2ccc(-c3ccccc3)cc2)c1` [Compound 83, N-(3-(4-Amino)anisole)-7-[(4-biphenyl)carbonyl]heptanamide]: 25 µM; for `Nc1ccccc1NC(=O)CCCCCN1C(=O)c2cccnc2C1=O` [Compound 246a]: 5 µM; for `O=C(CCCCS(=O)(=O)CC(=O)c1ccc2ccccc2c1)NO` [Compound 229a, N-Hydroxy-5-(2-naphthoylmethylsulfonyl)pentanamide]: 1 µM. As for `O=C(CCCCS(=O)(=O)CC(=O)c1ccc(-c2ccccc2)cc1)NO` [Compound 229b, N-Hydroxy-5-(4-biphenylcarbonylmethylsulfonyl)pentanamide], the IC50 under setting [1] was determined as 0.04 µM. Still for that read-out and setting: the same measure for `O=C(CCCCCCC(=O)c1cc2ccccc2[nH]1)NO` [Compound 100, N-Hydroxy-7-[2-(indolyl)carbonyl]heptanamide]: 4 µM.

Turning to `Nc1ccccc1NC(=O)CCCCCN1Cc2ccccc2C1=O` [Compound 248, N-(2-Aminophenyl)-6-[2-(1-oxo-1,3-dihydro-isoindolyl)]hexanamide], the IC50 under setting [1] is 4 µM. In the case of `O=C(CCCCCNCc1ccc2ccccc2c1)NO` [Compound 223, N-Hydroxy-6-N-(2-naphthylmethylamino)hexanamide trifluoroacetate], the IC50 worked out at 2 µM. In the case of `Nc1ccccc1NC(=O)CCCCCCCC(=O)c1ccc(-c2ccccc2)cc1` [Compound 130, N-(2-Aminophenyl)-8[(4-biphenyl)carbonyl]octanamide], the IC50 under setting [1] was found to be 3 µM. The same measure, in the same setting: the same measure for `CN(CCCCC(=O)NO)Cc1ccc2ccccc2c1` [Compound 213, N-Hydroxy-5-N-(2-naphthylmethyl-methylamino)pentanamide]: 3 µM.
